In publication PMC2945764, “Carboxypeptidase A6 in Zebrafish Development and Implications for VIth Cranial Nerve Pathfinding” (PLoS ONE, 2010):

Molecular target: T1, zebrafish CPA6 (zCPA6) (Danio rerio, UniProt E7F2H8)
T1 construct: full-length cDNA in pcDNA3.1, untagged, expressed in HEK293T cells; mature 65 kDa with EGFP
T1 sequence (E7F2H8 133-442): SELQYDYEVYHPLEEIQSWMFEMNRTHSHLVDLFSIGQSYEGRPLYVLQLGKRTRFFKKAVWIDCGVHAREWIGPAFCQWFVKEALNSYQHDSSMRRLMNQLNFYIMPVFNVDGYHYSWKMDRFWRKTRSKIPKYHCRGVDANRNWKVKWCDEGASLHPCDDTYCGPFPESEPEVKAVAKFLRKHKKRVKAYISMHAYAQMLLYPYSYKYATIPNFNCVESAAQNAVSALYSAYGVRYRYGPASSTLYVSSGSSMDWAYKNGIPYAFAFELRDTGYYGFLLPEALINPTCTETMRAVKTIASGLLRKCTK
Experiment: decrease in absorbance at […] nm, ECM-bound enzyme of transfected HEK293T cells against untransfected wells
Assay type: biochemical
Conditions: 0.5 mM substrate, 50 mM Tris-HCl pH 7.5, 150 mM NaCl, 37 °C; untagged enzyme

Row | SMILES | decrease in absorbance at 336 nm, ECM-bound enzyme of transfected HEK293T cells
1 | O=C(C=Cc1ccco1)N[C@@H](Cc1ccccc1)C(=O)N[C@@H](Cc1ccccc1)C(=O)O [fa-FF] | fa-FF and fa–RL were most rapidly cleaved
2 | CC(C)C[C@H](NC(=O)[C@H](CCCNC(=N)N)NC(=O)C=Cc1ccco1)C(=O)O [fa-RL, fa–RL] | fa-FF and fa–RL were most rapidly cleaved
